Results on 37 compounds are retold here after patent US8575158B2, “1-phenyl-substituted heterocyclyl derivatives and their use as prostaglandin D2 receptor modulators” (Actelion Pharmaceuticals Ltd., priority 2010, dated 2013).

This experiment concerns the target T1, hCRTH2 receptor (Homo sapiens, UniProt Q9Y5Y4).
T1 construct: expressed in transfected cells; host or cells: HEK293
T1 sequence (Q9Y5Y4 1-395): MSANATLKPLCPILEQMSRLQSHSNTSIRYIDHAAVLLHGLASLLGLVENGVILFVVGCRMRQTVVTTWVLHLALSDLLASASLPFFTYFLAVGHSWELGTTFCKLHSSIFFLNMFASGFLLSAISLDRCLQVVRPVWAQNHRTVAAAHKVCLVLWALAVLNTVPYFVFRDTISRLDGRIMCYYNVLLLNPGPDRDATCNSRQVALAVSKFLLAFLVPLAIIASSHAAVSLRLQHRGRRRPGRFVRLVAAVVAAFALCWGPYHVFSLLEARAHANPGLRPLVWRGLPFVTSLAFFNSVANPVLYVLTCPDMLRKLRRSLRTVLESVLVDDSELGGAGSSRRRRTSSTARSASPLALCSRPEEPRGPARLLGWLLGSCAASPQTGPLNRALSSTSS
Nature of the experiment: Radioligand displacement assay (3H-PGD2) on hCRTH2 receptor membranes. It counts as binding. The note with it: antagonistic activity.

Setting [1] is: 3H-PGD2 radioligand displacement, HEK293-hCRTH2 membranes.
Where [2] appears, read: 3H-PGD2 displacement on HEK293-hCRTH2 membrane fragments.

As to `CC1(C)CC1C(=O)N1CCc2ccccc2C1c1cc(Cl)ccc1OCC(=O)O` (racemic) [Example 466, (±)-{4-Chloro-2-[2-(2,2-dimethyl-cyclopropanecarbonyl)-1,2,3,4-tetrahydro-isoquinolin-1-yl]-phenoxy}-acetic acid], the IC50 (commonly the point on the concentration scale where inhibition reaches its midpoint) under setting [1] is 24.2 nM.

The compound `O=C(O)COc1ccc(F)cc1C1c2ccccc2CCN1C(=O)COCc1ccccc1` (racemic) [Example 126, (±)-{2-[2-(2-Benzyloxy-acetyl)-1,2,3,4-tetrahydro-isoquinolin-1-yl]-4-fluoro-phenoxy}-acetic acid] returned an IC50 under setting [2] of 20 nM.

As to `O=C(O)COc1ccc(Cl)cc1C1c2ccccc2CCN1C(=O)NCCc1ccccc1` (racemic) [Example 493], the IC50 under setting [1] came to 22.5 nM.

With `O=C(O)COc1ccc(Cl)cc1[C@@H]1c2ccccc2CCN1C(=O)OCc1ccccc1Cl` [Example 174, (S)-1-(2-Carboxymethoxy-5-chloro-phenyl)-3,4-dihydro-1H-isoquinoline-2-carboxylic acid 2-chloro-benzyl ester], the IC50 under setting [2] turned out to be 5.75 nM.

For `O=C(O)COc1ccc(Cl)cc1C1c2ccccc2CCN1C(=O)COc1ccc(F)cc1` (racemic) [Example 407], the half-maximal inhibitory concentration (IC50) under setting [1] stood at 34.9 nM.

With `Cc1ccc(CCCC(=O)N2CCc3ccccc3C2c2cc(Cl)ccc2OCC(=O)O)cc1` (racemic) [Example 97, (±)-{4-Chloro-2-[2-(4-p-tolyl-butyryl)-1,2,3,4-tetrahydro-isoquinolin-1-yl]-phenoxy}-acetic acid], the concentration for half-maximal inhibition (IC50) under setting [2] was 9.7 nM.

In the case of `O=C(O)COc1ccc(F)cc1C1c2cccc(Cl)c2CCN1C(=O)OCc1ccccc1` (racemic) [Example 38, (±)-1-(2-Carboxymethoxy-5-fluoro-phenyl)-5-chloro-3,4-dihydro-1H-isoquinoline-2-carboxylic acid benzyl ester], the 50% inhibitory concentration (IC50) under setting [2] amounted to 20.8 nM. Compared with the last compound, the IC50 is about 2.1-fold higher.

Compound `O=C(O)COc1ccc(Cl)cc1C1c2ccccc2CCN1C(=O)OCc1c(F)cccc1F` (racemic) [Example 250] showed a half-inhibitory concentration (IC50) under setting [2] of 6.84 nM.

The compound `O=C(O)COc1ccc(Cl)cc1C1c2ccccc2CCN1C(=O)COc1cncc(F)c1` (racemic) [Example 478] gave an IC50 under setting [1] of 232 nM. This counts as sub-micromolar.

Under setting [2], `O=C(O)COc1ccc(Cl)cc1C1c2ccccc2CN1C(=O)OCc1ccccc1` (stereo not shown) [Example 231, 1-(2-Carboxymethoxy-5-chloro-phenyl)-1,3-dihydro-isoindole-2-carboxylic acid benzyl ester] yielded an IC50 of 2.65 nM.

With `O=C(O)COc1ccc(Cl)cc1C1c2ccccc2CCN1C(=O)OCc1cccc(F)c1F` (racemic) [Example 249], the IC50 under setting [2] amounted to 3.86 nM.

Turning to `O=C(O)COc1ccc(Cl)cc1C1c2ccc(F)cc2CCN1C(=O)C1CC1c1ccccc1Cl` (mixture of isomers) [Example 430, (±)-(4-Chloro-2-{2-[2-(trans-2-chloro-phenyl)-cyclopropanecarbonyl]-6-fluoro-1,2,3,4-tetrahydro-isoquinolin-1-yl}-phenoxy)-acetic acid], the IC50 under setting [1] came to 9.37 nM.

Under setting [1], `COc1ccccc1COC(=O)N1CCc2ccccc2[C@H]1c1cc(Cl)ccc1OCC(=O)O` [Example 356, (S)-1-(2-Carboxymethoxy-5-chloro-phenyl)-3,4-dihydro-1H-isoquinoline-2-carboxylic acid 2-methoxy-benzyl ester] returned a half-maximal inhibitory concentration (IC50) of 3.58 nM.

Take `O=C(O)COc1ccc(Cl)cc1C1c2cccc(F)c2CCN1C(=O)COCc1ccccc1Cl` (racemic) [Example 120, (±)-(4-Chloro-2-{2-[2-(2-chloro-benzyloxy)-acetyl]-5-fluoro-1,2,3,4-tetrahydro-isoquinolin-1-yl}-phenoxy)-acetic acid]: under setting [2], the IC50 stood at 33.3 nM. This lies in the double-digit nanomolar range.

Take `O=C(O)COc1ccc(Cl)cc1C1c2ccccc2CCN1C(=O)[C@@H]1C[C@H]1c1ccccc1F` (mixture of isomers) [Example 160]: the IC50 under setting [2] is 16.4 nM.

In turn, `O=C(O)COc1ccc(Cl)cc1[C@@H]1c2ccc(F)c(F)c2CCN1C(=O)OCc1nc2ccccc2o1` [Example 320, (S)-1-(2-Carboxymethoxy-5-chloro-phenyl)-5,6-difluoro-3,4-dihydro-1H-isoquinoline-2-carboxylic acid benzooxazol-2-ylmethyl ester] registered an IC50 under setting [1] of 0.52 nM.

In turn, `O=C(O)COc1ccc(Cl)cc1[C@@H]1c2ccc(F)c(F)c2CCN1C(=O)OCc1cccc(F)c1` [Example 350, (S)-1-(2-Carboxymethoxy-5-chloro-phenyl)-5,6-difluoro-3,4-dihydro-1H-isoquinoline-2-carboxylic acid 3-fluoro-benzyl ester] came in with an IC50 under setting [1] of 3.38 nM.

For the compound `O=C(O)COc1ccc(F)cc1C1c2ccccc2CCN1C(=O)OCc1ccccc1` (racemic) [Example 1, (±)-1-(2-Carboxymethoxy-5-fluoro-phenyl)-3,4-dihydro-1H-isoquinoline-2-carboxylic acid benzyl ester], the concentration for half-maximal inhibition (IC50) under setting [2] amounted to 7.6 nM.

For the compound `Cc1ccccc1[C@@H]1C[C@H]1C(=O)N1CCc2ccccc2[C@H]1c1cc(Cl)ccc1OCC(=O)O` [Example 560, {4-Chloro-2-[(S)-2-((1R,2R)-2-o-tolyl-cyclopropanecarbonyl)-1,2,3,4-tetrahydro-isoquinolin-1-yl]-phenoxy}-acetic acid], the IC50 under setting [1] was found to be 3.27 nM.

Under setting [1], `O=C(O)COc1ccc(Cl)cc1C1c2ccccc2CCN1C(=O)CCn1ccc2ccc(F)cc21` (racemic) [Example 388] gave an IC50 of 25.7 nM.

For the compound `Cc1nn(CCC(=O)N2Cc3ccccc3C2c2cc(Cl)ccc2OCC(=O)O)c2cc(F)ccc12` (single isomer, unassigned) [Example 541, (4-Chloro-2-{2-[3-(6-fluoro-3-methyl-indazol-1-yl)-propionyl]-2,3-dihydro-1H-isoindol-1-yl}-phenoxy)-acetic acid], the concentration for half-maximal inhibition (IC50) under setting [1] amounted to 865 nM.

`Cc1nn(CCC(=O)N2CCc3cc(F)ccc3[C@H]2c2cc(Cl)ccc2OCC(=O)O)c2cc(Cl)ccc12` [Example 394] returned an IC50 under setting [1] of 185 nM.

Under setting [1], `O=C(O)COc1ccc(Cl)cc1[C@@H]1c2ccccc2CCN1C(=O)OCCc1cccc(F)c1` [Example 286, (S)-1-(2-Carboxymethoxy-5-chloro-phenyl)-3,4-dihydro-1H-isoquinoline-2-carboxylic acid 2-(3-fluoro-phenyl)-ethyl ester] registered an IC50 of 2.67 nM. This IC50 lies about 69-fold lower than the previous one.

Take `Cc1csc(=O)n1CCC(=O)N1CCc2ccccc2C1c1cc(Cl)ccc1OCC(=O)O` (racemic) [Example 452]: the IC50 under setting [1] was 500 nM.

Under setting [2], `O=C(O)COc1ccc(Cl)cc1C1c2ccccc2CCN1C(=O)OCc1c(Cl)cccc1Cl` (racemic) [Example 243] displayed an IC50 of 6.48 nM.

In turn, `Cc1cccc(COC(=O)N2CCc3ccccc3C2c2cc(Cl)ccc2OCC(=O)O)c1` (racemic) [Example 239] displayed a 50% inhibitory concentration (IC50) under setting [2] of 17.7 nM. Compared with the last compound, the IC50 is about 2.7-fold higher.

`COc1ccc(OCC(=O)N2CCc3ccccc3C2c2cc(Cl)ccc2OCC(=O)O)cn1` (racemic) [Example 486] showed an IC50 under setting [1] of 371 nM.

As for `O=C(O)COc1ccc(F)cc1[C@@H]1c2ccccc2CCN1C(=O)[C@@H]1C[C@H]1c1ccccc1` (single isomer, unassigned) [Example 30], the IC50 under setting [2] stood at 912 nM.

As for `O=C(O)COc1ccc(F)cc1C1c2ccccc2CCN1C(=O)Oc1ccccc1` (racemic) [Example 169], under setting [2], the IC50 was found to be 451 nM.

Take `CC(C)[C@@H]1C[C@H]1C(=O)N1CCc2ccccc2[C@H]1c1cc(Cl)ccc1OCC(=O)O` (single isomer, unassigned) [Example 464]: the IC50 under setting [1] came to 789 nM. In other words, the sub-micromolar range.

Under setting [1], `O=C(O)COc1ccc(Cl)cc1C1c2ccccc2CCN1C(=O)CCCN1CCCC1=O` (racemic) [Example 440] showed an IC50 of 55.7 nM. This IC50 is about 14-fold lower than that of the compound before.

As for `CC(C)COC(=O)N1CCc2ccccc2C1c1cc(Cl)ccc1OCC(=O)O` (racemic) [Example 265], the concentration for half-maximal inhibition (IC50) under setting [2] is 37.6 nM.

Turning to `Cc1cccc(CCCC(=O)N2CCc3ccccc3C2c2cc(Cl)ccc2OCC(=O)O)c1` (racemic) [Example 110, (±)-{4-Chloro-2-[2-(4-m-tolyl-butyryl)-1,2,3,4-tetrahydro-isoquinolin-1-yl]-phenoxy}-acetic acid], the IC50 under setting [2] turned out to be 41.2 nM. This IC50 and that of the compound before are within 1.5-fold of each other.

In turn, `CCn1nc(C)cc1CCOC(=O)N1CCc2ccccc2[C@H]1c1cc(Cl)ccc1OCC(=O)O` [Example 289, (S)-1-(2-Carboxymethoxy-5-chloro-phenyl)-3,4-dihydro-1H-isoquinoline-2-carboxylic acid 2-(2-ethyl-5-methyl-2H-pyrazol-3-yl)-ethyl ester] had an IC50 under setting [1] of 2.94 nM.

In turn, `Cc1csc(COC(=O)N2CCc3c(ccc(F)c3F)[C@H]2c2cc(Cl)ccc2OCC(=O)O)n1` [Example 302, (S)-1-(2-Carboxymethoxy-5-chloro-phenyl)-5,6-difluoro-3,4-dihydro-1H-isoquinoline-2-carboxylic acid 4-methyl-thiazol-2-ylmethyl ester] came in with a 50% inhibitory concentration (IC50) under setting [1] of 5.7 nM.

As to `O=C(O)COc1ccc(Cl)cc1[C@@H]1c2ccc(F)cc2CCN1C(=O)OCCc1cccc(F)c1` [Example 336, (S)-1-(2-Carboxymethoxy-5-chloro-phenyl)-6-fluoro-3,4-dihydro-1H-isoquinoline-2-carboxylic acid 2-(3-fluoro-phenyl)-ethyl ester], the IC50 under setting [1] is 11.5 nM.

In turn, `Cc1nc(COC(=O)N2CCc3c(ccc(F)c3F)[C@H]2c2cc(Cl)ccc2OCC(=O)O)cs1` [Example 304, (S)-1-(2-Carboxymethoxy-5-chloro-phenyl)-5,6-difluoro-3,4-dihydro-1H-isoquinoline-2-carboxylic acid 2-methyl-thiazol-4-ylmethyl ester] came in with an IC50 under setting [1] of 5.39 nM. Against the preceding compound, the IC50 is about 2.1-fold lower.
